Source: ChEMBL document CHEMBL5032532, “Synthesis of xanthosine 2-phosphate diesters via phosphitylation of the carbonyl group” (Bioorg Med Chem Lett, 2021)

Tests used:
[1] = Chemical stability in PBS buffer at pH 6.8 assessed as compound hydrolysis at 20 mM measured after 7 hrs by RP-HPLC analysis; assay type: physicochemical; details: read-out: Drug degradation
[2] = Chemical stability in PBS buffer at pH 11.1 assessed as compound hydrolysis at 20 mM measured upto 8 hrs by RP-HPLC analysis; assay type: physicochemical; details: pH 11.1, 8 h, 20000 µM
[3] = Chemical stability in PBS buffer at pH 4.8 assessed as compound hydrolysis at 20 mM measured after 7 hrs by RP-HPLC analysis; assay type: physicochemical; details: read-out: Drug degradation
[4] = Chemical stability in human serum assessed as compound hydrolysis at 20 mM measured upto 8 hrs by RP-HPLC analysis; assay type: physicochemical, cell-free; details: 20000 µM

- degraded at 7 h, 20000 µM [1]: 40%
- Stability [2]: Stable
- degraded at 7 h, 20000 µM [3]: 50%
- Stability [4]: Unstable
SMILES: CCN(CC)CC.O=c1[nH]c(OP(=O)(O)Oc2ccccc2)nc2c1ncn2[C@@H]1O[C@H](CO)[C@@H](O)[C@H]1O
